The values that follow are results of earlier work, collected in patent US11718625B2, “Near-infrared fluorescent molecule active targeting folate receptor and preparation method thereof” (NANJING NUOYUAN MEDICAL DEVICES CO., LTD, priority 2020, dated 2023).

The structures appear in SMILES notation.

In one data set the test system is tumor. Conditions: clinical practice.
For data set [1] the following is noted: at maximum injection dosage less than 2 mg/kg; literature report and own detection data.

Consider `CC1(C)C(/C=C/C=C/C=C/C=C2\N(CCCCS(=O)(=O)O)c3ccc4ccccc4c3C2(C)C)=[N+](CCCCS(=O)(=O)[O-])c2ccc3ccccc3c21` [ICG, Indocyanine green], for which the “waiting time to generate sufficient fluorescence contrast (tumor: normal tissue)” value in the data set with tumor is on record as “at least 12 hours”. In addition, in data set [1], the “concentration of the ICG in the human body tumors” value was 10 to 1000 nM. Also, the quantum yield result (in an aqueous solution) is on record as “less than 1%”. The “wavelength of emitted fluorescence” value (under irradiation with the wavelength of 780 nm) was 830 nm.
